Key:
Type in all cases: in vivo
Maize [1] = assay: Post-emergence test/greenhouse, Maize; details: greenhouse, after three weeks
Method: (§1) Solvent: 5 parts by weight of acetone
(§2) Emulsifier: 1 part by weight of alkylaryl polyglycol ether
(§3) To produce a suitable preparation of active compound, 1 part by weight of active compound is mixed with the stated amount of solvent, the stated amount of emulsifier is added and the concentrate is diluted with water to the desired concentration.
(§4) Test plants which have a height of 5-15 cm are sprayed with the preparation of the active compound in such a way as to apply the particular amounts of active compound desired per unit area. The concentration of the spray liquor is chosen so that the particular amounts of active compound desired are applied in 2000 l of water/ha.
(§5) After three weeks, the degree of damage to the plants is rated in % damage in comparison to the development of the untreated control.
(§6) 0%=no action (like untreated control)

Sorghum [2] = assay: Post-emergence test/greenhouse, Sorghum; details: greenhouse, after three weeks
Method: as §1, §2, §3, §4, §5, §6

Ambrosia = assay: Pre-emergence test/Greenhouse, Ambrosia; details: after three weeks
Outline: (§7)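 Pre-emergence soil drench ~24 h after sowing; compound in solvent/emulsifier diluted with water, constant water per area, dose defined by rate per unit area. Read-out at 3 wk: % damage vs untreated control, 0% = no action.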

Gallium = assay: Post-emergence test/greenhouse, Gallium; details: greenhouse, after three weeks
Method: as §1, §2, §3, §4, §5, §6

Lolium [3] = assay: Post-emergence test/greenhouse, Lolium; details: greenhouse, after three weeks
Method: as §1, §2, §3, §4, §5, §6

Soya beans = assay: Pre-emergence test/Greenhouse, Soya beans; details: in vivo
Outline: as §7

Echinochloa = assay: Post-emergence test/greenhouse, Echinochloa; details: greenhouse, after three weeks
Method: as §1, §2, §3, §4, §5, §6

weeds [4] = assay: Pre-emergence test (greenhouse), activity against weeds; details: in words
Outline: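 Three weeks after treatment, % damage relative to untreated plants is scored, 0% meaning no effect. Seeds in normal soil received, roughly one day post-sowing, an aqueous dilution of an acetone/emulsifier concentrate, with the rate per unit area, not concentration, being the relevant dose.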

Digitaria = assay: Post-emergence test/greenhouse, Digitaria; details: greenhouse, after three weeks
Method: as §1, §2, §3, §4, §5, §6

Sorghum [5] = assay: Pre-emergence test/Greenhouse, Sorghum; details: after three weeks
Outline: as §7

Poa = assay: Pre-emergence test/Greenhouse, Poa; details: after three weeks
Outline: as §7

Solanum = assay: Pre-emergence test/Greenhouse, Solanum; details: after three weeks
Outline: as §7

Amaranthus = assay: Post-emergence test/greenhouse, Amaranthus; details: greenhouse, after three weeks
Method: as §1, §2, §3, §4, §5, §6

Maize [6] = assay: Pre-emergence test/Greenhouse, Maize; details: in vivo
Outline: as §7

weeds [7] = assay: Post-emergence test (greenhouse), activity against weeds; details: in words
Method: as §1, §2, §3, §4, §5, §6

Matricaria [8] = assay: Post-emergence test/greenhouse, Matricaria; details: greenhouse, after three weeks
Method: as §1, §2, §3, §4, §5, §6

Stellaria = assay: Post-emergence test/greenhouse, Stellaria; details: greenhouse, after three weeks
Method: as §1, §2, §3, §4, §5, §6

Lolium [9] = assay: Pre-emergence test/Greenhouse, Lolium; details: after three weeks
Outline: as §7

Matricaria [10] = assay: Pre-emergence test/Greenhouse, Matricaria; details: after three weeks
Outline: as §7

Row | Compound | degree of damage, Maize (Maize [1]; 60 g of ai./ha) [%] | degree of damage, Sorghum (Sorghum [2]; 60 g of ai./ha) [%] | degree of damage, Gallium (Gallium; 60 g of ai./ha) [%] | degree of damage, Lolium (Lolium [3]; 60 g of ai./ha) [%] | degree of damage to the plants (% damage vs untreated control), Soya beans (Soya beans) [%] | degree of damage, Echinochloa (Echinochloa; 60 g of ai./ha) [%] | activity against weeds (weeds [4]) | degree of damage, Digitaria (Digitaria; 60 g of ai./ha) [%] | degree of damage, Amaranthus (Amaranthus; 60 g of ai./ha) [%] | degree of damage to the plants (% damage vs untreated control), Maize (Maize [6]) [%] | activity against weeds (weeds [7]) | degree of damage, Matricaria (Matricaria [8]; 60 g of ai./ha) [%] | degree of damage, Stellaria (Stellaria; 60 g of ai./ha) [%] | further results
1 | COCc1nn(C(=O)NS(=O)(=O)c2c(C)csc2C(=O)OC)c(=O)n1C [Example 32] | 70 | 95 | 70 | 70 | 20 | 100 | very strong activity against weeds | 70 | 95 | 20 | very strong activity against weeds | 80 | 90 | degree of damage to the plants (% damage vs untreated control), Ambrosia (Ambrosia; 60 g of ai./ha): 95%; degree of damage to the plants (% damage vs untreated control), Sorghum (Sorghum [5]; 60 g of ai./ha): 60%; degree of damage to the plants (% damage vs untreated control), Poa (Poa; 60 g of ai./ha): 95%; degree of damage to the plants (% damage vs untreated control), Solanum (Solanum; 60 g of ai./ha): 95%; degree of damage to the plants (% damage vs untreated control), Lolium (Lolium [9]; 60 g of ai./ha): 95%; degree of damage to the plants (% damage vs untreated control), Matricaria (Matricaria [10]; 60 g of ai./ha): 95%
2 | COC(=O)c1cccc(C)c1S(=O)(=O)NC(=O)n1nc(SCCF)n(C2CC2)c1=O [Example 151] |  |  |  |  | 10 |  | very strong activity against weeds |  |  | 20 | very strong activity against weeds |  |  | degree of damage, Maize (Maize [1]; 30 g of ai./ha): 60%; degree of damage, Sorghum (Sorghum [2]; 30 g of ai./ha): 90%; degree of damage to the plants (% damage vs untreated control), Ambrosia (Ambrosia; 15 g of ai./ha): 80%; degree of damage, Gallium (Gallium; 30 g of ai./ha): 90%; degree of damage, Lolium (Lolium [3]; 30 g of ai./ha): 60%; degree of damage, Echinochloa (Echinochloa; 30 g of ai./ha): 70%; degree of damage, Digitaria (Digitaria; 30 g of ai./ha): 90%; degree of damage to the plants (% damage vs untreated control), Sorghum (Sorghum [5]; 15 g of ai./ha): 50%; degree of damage to the plants (% damage vs untreated control), Poa (Poa; 15 g of ai./ha): 90%; degree of damage to the plants (% damage vs untreated control), Solanum (Solanum; 15 g of ai./ha): 90%; degree of damage, Amaranthus (Amaranthus; 30 g of ai./ha): 95%; degree of damage, Matricaria (Matricaria [8]; 30 g of ai./ha): 90%; degree of damage, Stellaria (Stellaria; 30 g of ai./ha): 90%; degree of damage to the plants (% damage vs untreated control), Lolium (Lolium [9]; 15 g of ai./ha): 90%; degree of damage to the plants (% damage vs untreated control), Matricaria (Matricaria [10]; 15 g of ai./ha): 90%
3 | CCOc1nn(C(=O)NS(=O)(=O)c2c(C)cccc2C(=O)OC)c(=O)n1C [Example 163] | 60 | 95 | 95 | 80 | 0 | 70 | very strong activity against weeds | 80 | 100 | 20 | very strong activity against weeds | 100 | 95 | degree of damage to the plants (% damage vs untreated control), Ambrosia (Ambrosia; 4 g of ai./ha): 80%; degree of damage to the plants (% damage vs untreated control), Sorghum (Sorghum [5]; 4 g of ai./ha): 60%; degree of damage to the plants (% damage vs untreated control), Poa (Poa; 4 g of ai./ha): 95%; degree of damage to the plants (% damage vs untreated control), Solanum (Solanum; 4 g of ai./ha): 90%; degree of damage to the plants (% damage vs untreated control), Lolium (Lolium [9]; 4 g of ai./ha): 80%
